# Laboratory results as given in patent publication US20240050577A1, “CDK INHIBITORS AND PHARMACEUTICAL USES THEREOF” (RISEN (SUZHOU) PHARMA TECH CO., LTD., priority 2022, published 2024).
# What was measured:
# Format in all cases: cell-based
# CDK4 protein = target: T1, CDK4 protein (Homo sapiens, UniProt P11802); test: CDK4 protein degradation in OVCAR3 cells (Western blot); settings: 24 h; for DC50: read-out: DC50 CDK4 (half-maximum degradation concentration); for percent CDK4 protein degradation at 0.05 µM: OVCAR-3, 50 nM test compound, read-out: level of CDK4 protein degradation
# T1 construct: host or cells: OVCAR3
# T1 sequence (P11802 whole entry): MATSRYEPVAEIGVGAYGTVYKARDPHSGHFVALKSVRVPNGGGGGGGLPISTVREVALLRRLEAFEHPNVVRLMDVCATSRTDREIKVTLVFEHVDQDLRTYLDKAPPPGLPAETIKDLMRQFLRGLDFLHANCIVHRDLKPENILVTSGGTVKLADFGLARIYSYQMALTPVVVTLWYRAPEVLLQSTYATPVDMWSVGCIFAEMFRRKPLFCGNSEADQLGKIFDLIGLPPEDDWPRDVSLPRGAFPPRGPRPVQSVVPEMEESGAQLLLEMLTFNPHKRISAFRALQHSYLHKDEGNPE
# Description: (§1) OVCAR3 (Cobioer, CBP60294) cell line of exponential growth phase was inoculated on a 6-well cell culture plate (Corning, 3516) according to 3E5/well scheme; and the plate was incubated overnight in a 5%-carbon dioxide incubator at 37° C. The next day, the test compound was dissolved in DMSO (Sigma, RNBF5902) to prepare a 10-mM concentration stock solution. The stock solution was diluted with complete medium, giving working solutions of different concentrations. Working solution was added into the corresponding wells of the orifice plate. The plate was placed in a 5% carbon dioxide incubator, set at 37° C., and incubated for 24 h. The plate was removed from the incubator, and the cells were washed twice with precooled PBS (Gibco, 14190250), followed by addition of 40 μL RIPA lysis buffer (containing protease inhibitor (Invitrogen™, AM2696)) to each well. Adherent cells were scraped off with a cell scraper, and the cell lysate was transferred to a 1.5 mL centrifuge tube, and the tube was placed on ice for 30 minutes. After completion of cell lysis, the tube was centrifugated for 10 min at 4° C., 14000 rpm. The supernatant was transferred into a new 1.5-mL centrifuge tube, and the new tube was placed on ice, followed by measurement of the protein concentration with BCA protein detection kit (Thermo Fisher, 23225). A mixture of cell lysate (40 μL) and loading buffer (10 μL, 5×SDS (Beyotime, P0015L)) was placed into a water bath at 95° C. for 10 min to denature the protein. The denatured protein sample, 30 μL/well, was added into a corresponding well of 4-20% Bis-Tris gel (Kingsley, M00657). The initial voltage was adjusted to 80-V and run for 30 min, followed by voltage increased to 120 V, and run for another 40 min, until the strip had run to the appropriate position. After electrophoresis, iBlot2 (Life Technologies, IB21001) was used to transfer the film under the condition of 20 V and 7 min. At the end of film transfer, 5% skimmed milk powder was sealed at room temperature for 2 h, and then TBST (Thermo Scientific, 28360) buffer solution was used to rinse for three times, 10 minutes each time. Skimmed milk powder (5%) was diluted with the first antibody in the appropriate proportion, and the working solution of the first antibody was prepared and incubated overnight at 4° C. After the incubation of the first antibody, the membrane was washed three times at room temperature with TBST buffer solution, 10 minutes each time; and the second antibody was incubated with 5% skimmed milk powder at room temperature for 1 h. After washing the film for three times with TBST, ECL color developing solution (Thermofisher 34095) was added, and an image was taken on a Biorad Chemi Doc gel imager. The band gray value was analyzed (Image Lab).
# (§2) Symbols of “−”, “+”, “++”, and “+++” indicate that the degradation level of CDK protein induced by test compound was 10% or less, 11 to 30%, 31 to 60%, and greater than 60%, respectively.
# (§3) Half-maximum degradation concentrations (DC50s) of test compounds were calculated using GraphPad Prism and their values are shown in Table 4. Symbols of “++++”, “+++”, “++”, “+” and “−” represent DC50s equal or less than 10 nM, 11-50 nM, 51-100 nM, 101-200 nM, and >200 nM, respectively.
# CDK2 protein = target: T2, CDK2 protein (Homo sapiens, UniProt P24941); test: CDK2 protein degradation in OVCAR3 cells (Western blot); settings: 24 h; for level of CDK2 protein degradation: 50 nM test compound; for DC50: read-out: DC50 CDK2 (half-maximum degradation concentration)
# T2 construct: host or cells: OVCAR3
# Description: as §1, §2, §3
# CDK1 protein = target: T3, CDK1 protein (Homo sapiens, UniProt P06493); test: CDK1 protein degradation in OVCAR3 cells (Western blot); settings: 24 h; for DC50: read-out: DC50 CDK1 (half-maximum degradation concentration); for percent CDK1 protein degradation at 0.05 µM: OVCAR-3, 50 nM test compound, read-out: level of CDK1 protein degradation
# T3 construct: host or cells: OVCAR3
# T3 sequence (P06493 whole entry): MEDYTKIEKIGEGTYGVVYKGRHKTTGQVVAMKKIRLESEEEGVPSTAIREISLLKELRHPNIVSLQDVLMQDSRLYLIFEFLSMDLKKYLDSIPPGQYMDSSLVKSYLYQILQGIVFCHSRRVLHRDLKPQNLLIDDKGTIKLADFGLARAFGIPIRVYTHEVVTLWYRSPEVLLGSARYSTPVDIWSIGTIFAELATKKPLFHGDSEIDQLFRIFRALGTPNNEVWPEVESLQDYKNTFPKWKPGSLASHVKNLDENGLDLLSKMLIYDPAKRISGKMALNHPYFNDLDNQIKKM
# Description: as §1, §2, §3
# OVCAR3 cells = test: Cell proliferation study (Cell Titer Glo, 72 h); settings: Homo sapiens, OVCAR-3, luminescence, read-out: IC50, inhibitory effect on cellular proliferation
# CDK6 protein = target: T4, CDK6 protein (Homo sapiens, UniProt Q00534); test: CDK6 protein degradation in OVCAR3 cells (Western blot); settings: 24 h; for DC50: read-out: DC50 CDK6 (half-maximum degradation concentration); for percent CDK6 protein degradation at 0.05 µM: OVCAR-3, 50 nM test compound, read-out: level of CDK6 protein degradation
# T4 construct: host or cells: OVCAR3
# T4 sequence (Q00534 whole entry): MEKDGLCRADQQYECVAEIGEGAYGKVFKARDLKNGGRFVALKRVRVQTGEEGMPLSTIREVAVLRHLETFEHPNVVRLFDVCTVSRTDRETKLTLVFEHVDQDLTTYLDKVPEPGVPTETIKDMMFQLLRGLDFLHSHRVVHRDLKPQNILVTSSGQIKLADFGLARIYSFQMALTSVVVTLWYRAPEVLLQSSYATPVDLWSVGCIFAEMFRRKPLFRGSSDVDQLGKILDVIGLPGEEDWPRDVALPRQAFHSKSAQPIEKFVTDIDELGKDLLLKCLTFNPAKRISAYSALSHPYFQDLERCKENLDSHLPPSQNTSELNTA
# Description: as §1, §2, §3
SMILES,DC50 (CDK4 protein) [µM],percent CDK4 protein degradation at 0.05 µM (CDK4 protein) [%],level of CDK2 protein degradation (CDK2 protein),DC50 (CDK2 protein) [µM],DC50 (CDK1 protein) [µM],percent CDK1 protein degradation at 0.05 µM (CDK1 protein) [%],IC50 (OVCAR3 cells) [µM],DC50 (CDK6 protein) [µM],percent CDK6 protein degradation at 0.05 µM (CDK6 protein) [%]
C[C@@]1(O)CCC[C@H]1n1c(=O)ccc2cnc(NC3CCN(S(=O)(=O)C4CCN(C5CC6(CCN(c7cc8c(cc7F)C(=O)N(C7CCC(=O)NC7=O)C8=O)CC6)C5)CC4)CC3)nc21 (stereo partly drawn) [Compound 94],> 0.2,11 to 30,+++ (greater than 60%),< 0.01,< 0.01,> 60,1 to 5,> 0.2,> 60
C[C@@]1(O)CCC[C@H]1n1c(=O)ccc2cnc(NC3CCN(S(=O)(=O)C4CCN(CC5CCN(C6CN(c7cc8c(cc7F)C(=O)N(C7CCC(=O)NC7=O)C8=O)C6)CC5)CC4)CC3)nc21 (stereo partly drawn) [Compound 95],> 0.2,31 to 60,++ (31 to 60%),0.051 to 0.1,0.011 to 0.05,> 60,0.101 to 1,< 0.01,> 60
